{"source": "paper PMC10914731", "about": "“Homo-BacPROTAC-induced degradation of ClpC1 as a strategy against drug-resistant mycobacteria” (Nature Communications, 2024)", "key": {"[1]": {"assay": "Microsomal stability, human", "type": "in vitro ADME", "how_it_was_run": "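Steps: incubate compound at 1 µmol/l with liver microsomes (0.5 mg/ml) plus 1 mM NADPH in pH 7.5 Tris-HCl buffer containing MgCl2 at 37 °C; stop aliquots over time with acetonitrile; centrifuge and measure remaining compound by LC-MS/MS; fit first-order decay and convert half-life to %Qh.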"}, "Msm 700084": {"system": "Msm 700084", "assay": "microbe, parasite or virus in culture", "type": "cell-based"}, "Mtb (moxR) FNDR-M1": {"system": "Mtb (moxR) FNDR-M1", "assay": "microbe, parasite or virus in culture", "type": "cell-based"}, "Enterococcus faecium": {"system": "Enterococcus faecium", "assay": "MIC ESKAPES panel, Enterococcus faecium", "type": "cell-based", "description": "(§1) Minimum inhibitory concentration (MIC) against ESKAPES panel of Gram positive and Gram negative pathogens (Enterococcus faecium, Staphylococcus aureus, Klebsiella pneumoniae, Acinetobacter baumannii, Pseudomonas aeruginosa, Enterobacter cloacae and Salmonella typhimurium [ESKAPES panel]) were determined at the FNDR by the standard broth dilution method [CLSI, M100]. […] Mueller Hinton broth (MHB) medium was used to grow ESKAPES panel strains. The individual cultures were added as 200 μL (inoculum of 3–7 × 10^5 cfu/ml) to the respective assay plates in each well to all columns, except the media control (200 μL of medium). […] The assay plates were incubated at 37 °C, and the results were noted on the 2nd day as turbidometric readout. The clear wells indicated inhibition of growth, while the turbid wells indicated uninhibited growth."}, "Klebsiella pneumoniae": {"system": "Klebsiella pneumoniae", "assay": "MIC ESKAPES panel, Klebsiella pneumoniae", "type": "cell-based", "description": "as §1"}, "[2]": {"system": "non-replicating cells of Mtb H37Rv", "type": "cell-based, Mycobacterium tuberculosis", "details": "three replicate columns"}, "[3]": {"target": "His6-tagged ClpC1-NTD substrate, M. smegmatis ClpC1P1P2 (UniProt A0R574+P9WPC9)", "sequence (P9WPC9 1-156, looked up, natural form)": "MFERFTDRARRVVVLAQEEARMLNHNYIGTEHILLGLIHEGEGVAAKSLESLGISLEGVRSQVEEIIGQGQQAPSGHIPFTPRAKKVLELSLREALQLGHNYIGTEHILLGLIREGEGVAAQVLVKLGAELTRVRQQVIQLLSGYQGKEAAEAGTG", "sequence (A0R574 whole entry)": "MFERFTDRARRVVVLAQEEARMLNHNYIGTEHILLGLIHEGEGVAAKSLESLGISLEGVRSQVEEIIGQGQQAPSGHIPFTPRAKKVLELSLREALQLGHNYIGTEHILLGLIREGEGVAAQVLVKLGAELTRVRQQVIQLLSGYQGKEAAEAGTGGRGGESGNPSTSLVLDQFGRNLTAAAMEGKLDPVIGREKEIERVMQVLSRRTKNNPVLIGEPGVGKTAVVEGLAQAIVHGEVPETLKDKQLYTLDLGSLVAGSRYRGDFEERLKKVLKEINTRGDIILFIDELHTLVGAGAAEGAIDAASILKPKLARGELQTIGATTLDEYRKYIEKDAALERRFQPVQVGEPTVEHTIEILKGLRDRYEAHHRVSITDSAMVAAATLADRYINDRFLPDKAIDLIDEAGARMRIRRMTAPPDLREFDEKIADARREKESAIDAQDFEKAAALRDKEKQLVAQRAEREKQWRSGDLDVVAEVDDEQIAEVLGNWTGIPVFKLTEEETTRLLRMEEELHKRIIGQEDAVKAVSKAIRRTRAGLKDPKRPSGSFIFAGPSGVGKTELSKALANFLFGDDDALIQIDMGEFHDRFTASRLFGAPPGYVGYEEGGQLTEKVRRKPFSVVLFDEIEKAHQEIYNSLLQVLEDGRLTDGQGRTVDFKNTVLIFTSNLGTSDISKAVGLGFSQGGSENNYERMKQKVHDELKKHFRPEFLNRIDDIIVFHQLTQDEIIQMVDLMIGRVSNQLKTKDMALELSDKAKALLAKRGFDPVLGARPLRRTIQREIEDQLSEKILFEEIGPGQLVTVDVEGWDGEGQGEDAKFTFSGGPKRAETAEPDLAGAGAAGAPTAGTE", "assay": "biochemical", "type": "biochemical", "details": "for % Response: ClpC1-NTD/ClpP1P2 peak area normalized to DMSO, well replicates; for DC50: Msm"}}, "note": "“And” between values parts separate entries of the source, which are not always exact repeats. Equal entries are not always repeated. Where two headings read alike, the source gives them in different places. Where a SMILES comes first, the peptide text is derived from it. [ ]: non-standard residue; d: D form. NMeLeu(5-OH,4R) = CN[C@@H](C[C@@H](C)CO)C(=O)O; Phe(βR-OMe) = CO[C@H](c1ccccc1)[C@H](N)C(=O)O; Trp(1-Me) = Cn1cc(C[C@H](N)C(=O)O)c2ccccc21; NMeL = CN[C@@H](CC(C)C)C(=O)O; Pra = C#CC[C@H](N)C(=O)O", "data": [{"smiles": "C#CC[C@@H]1NC(=O)[C@H](CC(C)C)N(C)C(=O)[C@H](C(C)C)NC(=O)[C@H]([C@H](OC)c2ccccc2)NC(=O)[C@H](C)NC(=O)[C@H](C[C@@H](C)CO)N(C)C(=O)[C@H](Cc2cn(C)c3ccccc23)NC1=O", "note": "[Compound 10] (cyclo(A[Phe(βR-OMe)]V[NMeL][Pra][Trp(1-Me)][NMeLeu(5-OH,4R)]))", "values": [{"measurement": "Microsomal Stability Human QH", "setting": "[1]; Human", "value": ">88.400", "unit": "%"}, {"measurement": "Microsomal Stability Human", "setting": "[1]; clearance in microsomes", "value": "> 88", "unit": "%Qh"}, {"measurement": "MIC", "setting": "Msm 700084; Mycolicibacterium smegmatis, 700084, single determinations, read-out: Msm 700084 MIC", "value": 25, "unit": "µM"}, {"measurement": "MIC", "setting": "Msm 700084; Mycolicibacterium smegmatis, 700084, read-out: MIC Msm 700084", "value": 25, "unit": "µM"}, {"measurement": "MIC", "setting": "Mtb (moxR) FNDR-M1; M. tuberculosis FNDR-M1, single well replicates", "value": 1.56, "unit": "µM"}, {"measurement": "MIC", "setting": "Mtb (moxR) FNDR-M1; Mycobacterium tuberculosis, M. tuberculosis FNDR-M1, single well replicates", "value": 1.56, "unit": "µM"}, {"measurement": "MIC", "setting": "Mtb (moxR) FNDR-M1; Mycobacterium tuberculosis, Mtb (moxR) FNDR-M1, mean ± SD, n = 3 well replicates", "value": 1.6, "unit": "µM"}, {"measurement": "MIC", "setting": "Enterococcus faecium; Enterococcus faecium, Gram positive, n = 3 well replicates", "value": "> 50", "unit": "µM"}, {"measurement": "MIC", "setting": "Enterococcus faecium; Enterococcus faecium, Gram-Positive Bacteria, replicates 1-3", "value": "> 45.6", "unit": "µg/mL"}, {"measurement": "MIC", "setting": "Enterococcus faecium; Gram-Positive Bacteria, replicates 1-3", "value": ">50", "unit": "µM"}, {"measurement": "MIC", "setting": "Klebsiella pneumoniae; Gram-Negative Bacteria, replicates 1-3", "value": ">50", "unit": "µM"}, {"measurement": "MIC", "setting": "Klebsiella pneumoniae; Klebsiella pneumoniae, Gram negative, n = 3 well replicates", "value": "> 50", "unit": "µM"}, {"measurement": "MIC", "setting": "Klebsiella pneumoniae; Klebsiella pneumoniae, Gram-Negative Bacteria, replicates 1-3", "value": "> 45.6", "unit": "µg/mL"}, {"measurement": "Supplementary Figure 2 dose-response value, starvation-induced non-replicating H37Rv cells", "setting": "[2]; Conc. 0.0488281 µM", "value": "91.338 and 78.4072 and 99.8789"}, {"measurement": "Supplementary Figure 2 dose-response value, starvation-induced non-replicating H37Rv cells", "setting": "[2]; Conc. 0.0976562 µM", "value": "83.6098 and 87.8245 and 85.6175"}, {"measurement": "Supplementary Figure 2 dose-response value, starvation-induced non-replicating H37Rv cells", "setting": "[2]; Conc. 0.195312 µM", "value": "83.554 and 88.4379 and 86.5417"}, {"measurement": "Supplementary Figure 2 dose-response value, starvation-induced non-replicating H37Rv cells", "setting": "[2]; Conc. 0.390625 µM", "value": "81.2435 and 84.4384 and 85.1554"}, {"measurement": "Supplementary Figure 2 dose-response value, starvation-induced non-replicating H37Rv cells", "setting": "[2]; Conc. 0.78125 µM", "value": "80.3114 and 85.7211 and 82.4466"}, {"measurement": "Supplementary Figure 2 dose-response value, starvation-induced non-replicating H37Rv cells", "setting": "[2]; Conc. 1.5625 µM", "value": "81.8012 and 82.096 and 79.8971"}, {"measurement": "Supplementary Figure 2 dose-response value, starvation-induced non-replicating H37Rv cells", "setting": "[2]; Conc. 3.125 µM", "value": "77.0129 and 81.0842 and 77.6981"}, {"measurement": "Supplementary Figure 2 dose-response value, starvation-induced non-replicating H37Rv cells", "setting": "[2]; Conc. 6.25 µM", "value": "66.8627 and 77.4193 and 82.598"}, {"measurement": "Supplementary Figure 2 dose-response value, starvation-induced non-replicating H37Rv cells", "setting": "[2]; Conc. 25 µM", "value": "73.1408 and 72.615 and 70.6073"}, {"measurement": "Supplementary Figure 2 dose-response value, starvation-induced non-replicating H37Rv cells", "setting": "[2]; Conc. 50 µM", "value": "65.1656 and 61.5724 and 59.0468"}, {"measurement": "Supplementary Figure 2 dose-response value, starvation-induced non-replicating H37Rv cells", "setting": "[2]; Conc. 100 µM", "value": "53.5574 and 51.9958 and 57.3099"}, {"measurement": "% Response", "setting": "[3]; 0.4 µM", "value": "107.165% and 105.713% and 105.534% and 109.793% and 112.635% and 106.598% and 107.262% and 106.323% and 113.228%"}, {"measurement": "% Response", "setting": "[3]; 33.3 µM", "value": "86.4131% and 86.1435% and 98.0091% and 93.8962% and 86.1584% and 100.044% and 99.6955% and 103.875% and 103.346%"}, {"measurement": "% Response", "setting": "[3]; 100.0 µM", "value": "86.569% and 107.836% and 89.4261% and 92.9238% and 99.5573% and 96.5131% and 88.7968% and 92.196% and 104.007%"}, {"measurement": "DC50", "setting": "[3]; Measurement 1-6, read-out: DC50, single measurements", "value": "> 100", "unit": "µM"}, {"measurement": "DC50", "setting": "[3]; mean of the measurements, read-out: DC50, Mean", "value": "> 100", "unit": "µM"}, {"measurement": "degradation of the His6-tagged ClpC1-NTD substrate", "setting": "[3]; cell-free, result in words", "value": "did not cause any degradation"}]}]}
